In ChEMBL document CHEMBL4706758, “Novel Substituted Pyridazines as Splicing Modulators for Modulating Splicing of mRNA and Uses Thereof for Treating Diseases” (ACS Med Chem Lett, 2021):

Tested on: not listed separately
Assay: Modulation of HTT mRNA exon 49-50 splicing in human GM04724 cells
Type: cell-based
Settings: not given

Structure (SMILES) | EC50 [nM]
C[C@@]12CC[C@@H](C[C@H](Oc3ccc(-c4ccc(-c5cn[nH]c5)cc4O)nn3)C1)N2 | 0.01
C[C@@]12CC[C@@H](C[C@H](Oc3ccc(-c4ccc(-n5ccnc5)cc4O)nn3)C1)N2 | 0.01
CN(c1ccc(-c2ccc(-c3cnn(C)c3)cc2O)nn1)[C@H]1C[C@@H]2CC[C@@](C)(N2)[C@H]1F | 0.01
COC[C@]12CC[C@H](C[C@@H](N(C)c3ccc(-c4cc(F)c(-n5ccnc5)cc4O)nn3)C1)N2 | 0.01
C[C@]12CC[C@H](C[C@@H](Oc3ccc(-c4ccc(-c5cn[nH]c5)cc4O)nn3)C1)N2 | 0.01
COC[C@@]12CC[C@@H](C[C@H](N(C)c3ccc(-c4cc(F)c(-n5ccnc5)cc4O)nn3)C1)N2 | 0.01

Tested on: not listed separately
Assay: Modulation of HTT mRNA exon 49b splicing in human GM04724 cells
Type: cell-based
Settings: not given

Structure (SMILES) | EC50 [nM]
C[C@@]12CC[C@@H](C[C@H](Oc3ccc(-c4ccc(-c5cn[nH]c5)cc4O)nn3)C1)N2 | 0.01
C[C@@]12CC[C@@H](C[C@H](Oc3ccc(-c4ccc(-n5ccnc5)cc4O)nn3)C1)N2 | 0.01
CN(c1ccc(-c2ccc(-c3cnn(C)c3)cc2O)nn1)[C@H]1C[C@@H]2CC[C@@](C)(N2)[C@H]1F | 0.01
COC[C@]12CC[C@H](C[C@@H](N(C)c3ccc(-c4cc(F)c(-n5ccnc5)cc4O)nn3)C1)N2 | 0.01
C[C@]12CC[C@H](C[C@@H](Oc3ccc(-c4ccc(-c5cn[nH]c5)cc4O)nn3)C1)N2 | 0.01
COC[C@@]12CC[C@@H](C[C@H](N(C)c3ccc(-c4cc(F)c(-n5ccnc5)cc4O)nn3)C1)N2 | 0.01

Molecular target: SMN2 pre-mRNA
Assay: Modulation of SMN2 mRNA FL splicing in spinal muscular atrophy patient fibroblasts assessed as SMN2 protein potency
Type: tissue-based, Homo sapiens
Settings: fibroblast

Structure (SMILES) | EC50 [nM]
C[C@@]12CC[C@@H](C[C@H](Oc3ccc(-c4ccc(-c5cn[nH]c5)cc4O)nn3)C1)N2 | 0.01
C[C@@]12CC[C@@H](C[C@H](Oc3ccc(-c4ccc(-n5ccnc5)cc4O)nn3)C1)N2 | 0.01
CN(c1ccc(-c2ccc(-c3cnn(C)c3)cc2O)nn1)[C@H]1C[C@@H]2CC[C@@](C)(N2)[C@H]1F | 0.01
COC[C@]12CC[C@H](C[C@@H](N(C)c3ccc(-c4cc(F)c(-n5ccnc5)cc4O)nn3)C1)N2 | 0.01
C[C@]12CC[C@H](C[C@@H](Oc3ccc(-c4ccc(-c5cn[nH]c5)cc4O)nn3)C1)N2 | 0.01
COC[C@@]12CC[C@@H](C[C@H](N(C)c3ccc(-c4cc(F)c(-n5ccnc5)cc4O)nn3)C1)N2 | 0.01

Molecular target: SMN2 pre-mRNA
Assay: Modulation of SMN2 mRNA D7 splicing in spinal muscular atrophy patient fibroblasts
Type: tissue-based, Homo sapiens
Settings: fibroblast

Structure (SMILES) | IC50 [nM]
C[C@@]12CC[C@@H](C[C@H](Oc3ccc(-c4ccc(-c5cn[nH]c5)cc4O)nn3)C1)N2 | 0.01
C[C@@]12CC[C@@H](C[C@H](Oc3ccc(-c4ccc(-n5ccnc5)cc4O)nn3)C1)N2 | 16
CN(c1ccc(-c2ccc(-c3cnn(C)c3)cc2O)nn1)[C@H]1C[C@@H]2CC[C@@](C)(N2)[C@H]1F | 0.01
COC[C@]12CC[C@H](C[C@@H](N(C)c3ccc(-c4cc(F)c(-n5ccnc5)cc4O)nn3)C1)N2 | 0.01
C[C@]12CC[C@H](C[C@@H](Oc3ccc(-c4ccc(-c5cn[nH]c5)cc4O)nn3)C1)N2 | 0.01
COC[C@@]12CC[C@@H](C[C@H](N(C)c3ccc(-c4cc(F)c(-n5ccnc5)cc4O)nn3)C1)N2 | 0.01

Tested on: not listed separately
Assay: Modulation of HTT mRNA splicing in human GM04724 cells assessed as mHTT protein potency
Type: cell-based
Settings: not given

Structure (SMILES) | EC50 [nM]
C[C@@]12CC[C@@H](C[C@H](Oc3ccc(-c4ccc(-c5cn[nH]c5)cc4O)nn3)C1)N2 | 0.01
C[C@@]12CC[C@@H](C[C@H](Oc3ccc(-c4ccc(-n5ccnc5)cc4O)nn3)C1)N2 | 0.01
CN(c1ccc(-c2ccc(-c3cnn(C)c3)cc2O)nn1)[C@H]1C[C@@H]2CC[C@@](C)(N2)[C@H]1F | 0.01
COC[C@]12CC[C@H](C[C@@H](N(C)c3ccc(-c4cc(F)c(-n5ccnc5)cc4O)nn3)C1)N2 | 0.01
C[C@]12CC[C@H](C[C@@H](Oc3ccc(-c4ccc(-c5cn[nH]c5)cc4O)nn3)C1)N2 | 0.01
COC[C@@]12CC[C@@H](C[C@H](N(C)c3ccc(-c4cc(F)c(-n5ccnc5)cc4O)nn3)C1)N2 | 0.01

Molecular target: SMN2 pre-mRNA
Assay: Modulation of SMN2 mRNA FL splicing in spinal muscular atrophy patient fibroblasts
Type: tissue-based, Homo sapiens
Settings: fibroblast

Structure (SMILES) | EC50 [nM]
C[C@@]12CC[C@@H](C[C@H](Oc3ccc(-c4ccc(-c5cn[nH]c5)cc4O)nn3)C1)N2 | 0.01
C[C@@]12CC[C@@H](C[C@H](Oc3ccc(-c4ccc(-n5ccnc5)cc4O)nn3)C1)N2 | 16
CN(c1ccc(-c2ccc(-c3cnn(C)c3)cc2O)nn1)[C@H]1C[C@@H]2CC[C@@](C)(N2)[C@H]1F | 0.01
COC[C@]12CC[C@H](C[C@@H](N(C)c3ccc(-c4cc(F)c(-n5ccnc5)cc4O)nn3)C1)N2 | 0.01
C[C@]12CC[C@H](C[C@@H](Oc3ccc(-c4ccc(-c5cn[nH]c5)cc4O)nn3)C1)N2 | 16
COC[C@@]12CC[C@@H](C[C@H](N(C)c3ccc(-c4cc(F)c(-n5ccnc5)cc4O)nn3)C1)N2 | 0.01
